From publication PMC8059291 (Antiviral Research, 2021) come the findings set out here.

Structures are written as SMILES.

The target of the test is SARS-CoV-2 RdRp (Severe acute respiratory syndrome coronavirus 2, UniProt P0DTD1). Briefly: CoV-Gluc RNA levels by real-time RT-PCR after NA treatment. The conditions noted are these: HEK293T, 1 μM, 24 h. The class given is cell-based.

For the molecule `CCC(CC)COC(=O)[C@H](C)N[P@](=O)(OC[C@H]1O[C@@](C#N)(c2ccc3c(N)ncnn23)[C@H](O)[C@@H]1O)Oc1ccccc1` [Remdesivir], the “reduction of minus-strand Gluc RNA” value was found to be 60%.
